Experimental data as given in patent publication US6369052B1, “Combination of huperzine and nicotinic compounds as a neuroprotective agent” (Georgetown University, priority 2000, dated 2002).
Where two headings read alike, the source gives them in different places.

Legend:
Type in all cases: cell-based
[1] = tested on: cultures of granule neurons prepared from mouse cerebellum; experiment: β-amyloid-peptide-induced cell toxicity in cerebellar granule neurons, LDH release (Example 2)
Procedure: Toxicity was induced by a 48 hour treatment with 25 μM β-amyloid peptide in the absence or presence of the indicated drugs.
In a first experiment, four samples each containing cultures of granule neurons prepared from mouse cerebellum and a different concentration of (−)-nicotine (ranging from 0 to 100 μM) were treated for 48 hours with 25 μM β-amyloid peptide (“AP”) (commercially available, for example, from Bachem, Inc., Torrance, Calif.) to induce cell death, according to the procedure described in Copani et al., 1995 Mol Pharmacol 47:890-7 (hereinafter “Copani et al.”).
Then cell death was assessed by measuring the amount of LDH released into the medium according to the procedure described in Bruno et al. The data are summarized in FIG. 2, Graph A, as lines connecting the values (represented by unfilled squares) of % of β-amyloid-peptide-induced toxicity (i.e., % cell death) at the corresponding concentration of nicotine in μM.
In a second experiment, four samples each containing cultures of granule neurons prepared from mouse cerebellum and a different concentration of (−)-huperzine A (ranging from 0 to 10 μM), were treated for 48 hours with 25 μM AP, (25-35 fragment) according to the above-described procedure. Then cell death was assessed as described above. The data are summarized in FIG. 2, Graph B, as lines connecting the values (represented by unfilled circles) of % of β-amyloid-peptide-induced toxicity at a particular concentration of (−)-huperzine A in μM.
In a third experiment, 4 samples each containing cultures of granule neurons prepared from mouse cerebellum, a different concentrations of (−)-huperzine A (ranging from 0 to 10 μM), and a fixed concentration of 10 μM of (−)-nicotine were treated for 48 hours with 25 μM AP using the procedure described above. Then cell death was assessed as above. The data are summarized in FIG. 2, Graph B, as lines connecting the values (represented by black-filled circles) of % of β-amyloid-peptide-induced toxicity at a particular μM-concentration of (−)-huperzine A.

[2] = tested on: mixed cortical cultures from mouse brain; experiment: NMDA-induced cell toxicity in mixed cortical (neuronal-glial) cultures, LDH release (Example 1)
Procedure: Graph B represents the dose-dependent effect of (−)-huperzine A alone (unfilled circles) and in the presence (filled circles) of 10 μM (−)-nicotine. Toxicity was induced by a 10 minute treatment with 75 μM NMDA in the absence or presence of the indicated drugs.
In a first experiment, four samples each containing neuronal-glial cultures from mouse cerebral cortical cultures and a different concentration of (−)-nicotine (ranging from 0 to 100 μM) were treated for 10 minutes with 75 μM of NMDA (commercially available, for example, from Sigma Chemical Co., St. Louis, Mo.) to induce cell death. The cultures were prepared from 15-day-old fetal Swiss-Webster mice, as described in Bruno et al., 1998 Neuroscience 85:751-7 (hereinafter “Bruno et al.”), incorporated herein by reference. Neuronal cells were plated in 96-well plates on a layer of confluent glial cells at a density of 200,000 cells/well in EMEM medium containing 5% fetal bovine serum and 5% horse serum. Then the NMDA was removed replacing the medium with fresh serum-free culture medium and cell death was assessed for each sample by measuring the amount of lactate dehydrogenase (“LDH”) released into the medium according to the procedure described in Bruno et al. The data are summarized in FIG. 1, Graph A, as lines connecting the values (represented by unfilled squares) of % of NMDA toxicity (i.e., % cell death) at the corresponding concentration of (−)-nicotine in μM.
In a second experiment, six samples each containing neuronal-glial cultures from mouse brain and a different concentration of (−)-huperzine A (ranging from 0 to 10 μM) were treated with 75 μM of NMDA, using the above-described procedure. Then cell death was assessed for each sample using the procedure described above. The data are summarized in FIG. 1, Graph B, as lines connecting the values (represented by unfilled circles) of % of NMDA toxicity at the corresponding concentration of (−)-huperzine A in μM.
In a third experiment, six samples each containing neuronal-glial cultures from mouse brain, a different concentration of (−)-huperzine A (ranging from 0 to 10 μM), and a fixed concentration of 10 μM of (−)-nicotine were treated with 75 μM NMDA, using the procedure described above. Then cell death was assessed for each sample as above. The data are summarized in FIG. 1, Graph B, as lines connecting the values (represented by black-filled circles) of % of NMDA toxicity at the corresponding μM-concentration of(−)-huperzine A.

[3] = tested on: neuronal-glial cultures from mouse cerebral cortical cultures; experiment: NMDA-induced cell toxicity in mixed cortical cultures, low drug concentrations, LDH release (Example 3)
[4] = drug alone, 25 μM β-amyloid peptide for 48 hours, FIG. 2
[5] = drug alone, nicotine 0-100 μM, huperzine A 0-10 μM
[6] = drug alone, 75 μM NMDA for 10 minutes, FIG. 1

| SMILES | cell death (% of β-amyloid-peptide-induced toxicity) at maximal neuroprotection [1] [%] | maximal level of neuroprotection [1] | neuroprotection [1] | toxicity induced by 25 μM AP [1] | NMDA-induced cell death [2] | cell death (% of NMDA toxicity) at maximal neuroprotection [2] [%] | maximal level of neuroprotection [2] | neuroprotection [2] | neuroprotective effect [3] | cell death (% of β-amyloid-peptide-induced toxicity) at maximal neuroprotection [1, 4] [%] | maximal level of neuroprotection [1, 4] | toxicity induced by 25 μM AP [1, 5] | cell death (% of NMDA toxicity) at maximal neuroprotection [2, 6] [%] | maximal level of neuroprotection [2, 6] | NMDA-induced cell death [2, 5] | neuroprotective effect ([3]; (−)-huperzine A alone, 1-1000 nM, 100 μM NMDA for 10 minutes) |
| --- | --- | --- | --- | --- | --- | --- | --- | --- | --- | --- | --- | --- | --- | --- | --- | --- |
| CN1CCCC1c1cccnc1 (single isomer, unassigned; (-)) [(−)-nicotine] | 45 | about 55% | about 20% | decreased in a dose-dependent manner | decreased in a dose-dependent manner | 45 | about 55% | about 40% | little effect |  |  |  |  |  |  |  |
| C/C=C1\[C@H]2C=C(C)C[C@]1(N)c1ccc(=O)[nH]c1C2 [(−)-huperzine A] |  |  |  |  |  |  |  |  |  | 70 | about 30% | decreased in a dose-dependent manner | 55 | about 45% | decreased in a dose-dependent manner | no significant neuroprotective effects |
